Test results reported in ChEMBL document CHEMBL3102801, “Synthesis and antiproliferative activity of new derivatives containing the polycyclic system 5,7:7,13-dimethanopyrazolo[3,4-b]pyrazolo[3',4':2,3]azepino[4,5-f]azocine” (Eur J Med Chem, 2014).

Assays:
Type in all cases: functional
[1] = system: SN12C; assay: Growth inhibition of human SN12C cells after 48 hrs by sulforhodamine B assay
[2] = Growth inhibition of human HCC2998 cells after 48 hrs by sulforhodamine B assay; conditions: HCC 2998, 48 h
[3] = system: OVCAR-8; assay: Growth inhibition of human OVCAR8 cells after 48 hrs by sulforhodamine B assay; conditions: OVCAR-8, 48 h
[4] = system: MCF7; assay: Growth inhibition of human MCF7 cells after 48 hrs by sulforhodamine B assay; conditions: MCF7, 48 h
[5] = system: SK-OV-3; assay: Growth inhibition of human SKOV3 cells after 48 hrs by sulforhodamine B assay; conditions: SK-OV-3, 48 h
[6] = Growth inhibition of human Hs 578T cells after 48 hrs by sulforhodamine B assay
[7] = system: T47D; assay: Growth inhibition of human T47D cells after 48 hrs by sulforhodamine B assay
[8] = system: NCI-H23; assay: Growth inhibition of human NCI-H23 cells after 48 hrs by sulforhodamine B assay; conditions: NCI-H23, 48 h
[9] = system: NCI-H322M; assay: Growth inhibition of human NCI-H322M cells after 48 hrs by sulforhodamine B assay
[10] = system: PC-3; assay: Growth inhibition of human PC3 cells after 48 hrs by sulforhodamine B assay; conditions: PC-3, 48 h
[11] = system: U-251; assay: Growth inhibition of human U251 cells after 48 hrs by sulforhodamine B assay; conditions: U-251, 48 h
[12] = system: Malme-3M; assay: Growth inhibition of human MALME-3M cells after 48 hrs by sulforhodamine B assay
[13] = system: HOP-62; assay: Growth inhibition of human HOP62 cells after 48 hrs by sulforhodamine B assay; conditions: HOP-62, 48 h
[14] = system: 786-0; assay: Growth inhibition of human 786-0 cells after 48 hrs by sulforhodamine B assay; conditions: 786-0, 48 h
[15] = Growth inhibition of human SF539 cells after 48 hrs by sulforhodamine B assay; conditions: SF-539, 48 h
[16] = Growth inhibition of human NCI-ADR-RES cells after 48 hrs by sulforhodamine B assay
[17] = system: HT-29; assay: Growth inhibition of human HT-29 cells after 48 hrs by sulforhodamine B assay; conditions: HT-29, 48 h
[18] = system: A498; assay: Growth inhibition of human A498 cells after 48 hrs by sulforhodamine B assay; conditions: A498, 48 h
[19] = system: SK-MEL-28; assay: Growth inhibition of human SK-MEL-28 cells after 48 hrs by sulforhodamine B assay; conditions: SK-MEL-28, 48 h
[20] = system: BT-549; assay: Growth inhibition of human BT549 cells after 48 hrs by sulforhodamine B assay; conditions: BT-549, 48 h
[21] = system: MDA-MB-468; assay: Growth inhibition of human MDA-MB-468 cells after 48 hrs by sulforhodamine B assay; conditions: MDA-MB-468, 48 h
[22] = system: NCI-H226; assay: Growth inhibition of human NCI-H226 cells after 48 hrs by sulforhodamine B assay; conditions: NCI-H226, 48 h
[23] = Growth inhibition of human OVCAR4 cells after 48 hrs by sulforhodamine B assay; conditions: OVCAR-4, 48 h
[24] = system: DU-145; assay: Growth inhibition of human DU145 cells after 48 hrs by sulforhodamine B assay; conditions: DU-145, 48 h
[25] = Growth inhibition of human UACC257 cells after 48 hrs by sulforhodamine B assay; conditions: UACC-257, 48 h
[26] = system: SNB-19; assay: Growth inhibition of human SNB19 cells after 48 hrs by sulforhodamine B assay; conditions: SNB-19, 48 h
[27] = system: TK-10; assay: Growth inhibition of human TK10 cells after 48 hrs by sulforhodamine B assay; conditions: TK-10, 48 h
[28] = system: NCI-H522; assay: Growth inhibition of human NCI-H522 cells after 48 hrs by sulforhodamine B assay; conditions: NCI-H522, 48 h
[29] = system: HCT-116; assay: Growth inhibition of human HCT116 cells after 48 hrs by sulforhodamine B assay; conditions: HCT-116, 48 h
[30] = system: IGROV-1; assay: Growth inhibition of human IGROV1 cells after 48 hrs by sulforhodamine B assay; conditions: IGROV-1, 48 h
[31] = system: SF-268; assay: Growth inhibition of human SF268 cells after 48 hrs by sulforhodamine B assay; conditions: SF-268, 48 h
[32] = Growth inhibition of human RXF393 cells after 48 hrs by sulforhodamine B assay; conditions: RXF 393, 48 h
[33] = system: OVCAR-3; assay: Growth inhibition of human OVCAR3 cells after 48 hrs by sulforhodamine B assay; conditions: OVCAR-3, 48 h
[34] = system: MDA-MB-231; assay: Growth inhibition of human MDA-MB-231 cells after 48 hrs by sulforhodamine B assay; conditions: MDA-MB-231, 48 h
[35] = system: A549; assay: Growth inhibition of human A549 cells after 48 hrs by sulforhodamine B assay; conditions: A549, 48 h
[36] = system: UACC-62; assay: Growth inhibition of human UACC62 cells after 48 hrs by sulforhodamine B assay; conditions: UACC-62, 48 h
[37] = Growth inhibition of human OVCAR5 cells after 48 hrs by sulforhodamine B assay; conditions: OVCAR-5, 48 h
[38] = system: NCI-H460; assay: Growth inhibition of human NCI-H460 cells after 48 hrs by sulforhodamine B assay; conditions: NCI-H460, 48 h
[39] = system: SK-MEL-2; assay: Growth inhibition of human SK-MEL-2 cells after 48 hrs by sulforhodamine B assay; conditions: SK-MEL-2, 48 h
[40] = system: ACHN; assay: Growth inhibition of human ACHN cells after 48 hrs by sulforhodamine B assay
[41] = Growth inhibition of human HOP92 cells after 48 hrs by sulforhodamine B assay; conditions: HOP-92, 48 h
[42] = Growth inhibition of human UO31 cells after 48 hrs by sulforhodamine B assay; conditions: UO-31, 48 h
[43] = system: HCT-15; assay: Growth inhibition of human HCT15 cells after 48 hrs by sulforhodamine B assay; conditions: HCT-15, 48 h
[44] = system: MDA-MB-435; assay: Growth inhibition of human MDA-MB-435 cells after 48 hrs by sulforhodamine B assay; conditions: MDA-MB-435, 48 h

Structure (SMILES): COc1ccc(-n2nc(C)c3c2N(C)C2(C)CC4C3(C)C3CC4(C2)N(C)c2c(c(C)nn2-c2ccc(OC)cc2)C3C)cc1 (stereo not drawn)
- GI50 [1]: 8.07 µM
- GI50 [2]: 9.65 µM
- GI50 [3]: 4.19 µM
- GI50 [4]: 4.02 µM
- GI50 [5]: 2.53 µM
- GI50 [6]: 4.27 µM
- GI50 [7]: 2440 nM
- GI50 [8]: 18.7 µM
- GI50 [9]: 22.4 µM
- GI50 [10]: 1710 nM
- GI50 [11]: 3.94 µM
- GI50 [12]: 6.34 µM
- GI50 [13]: 3.1 µM
- GI50 [14]: 5.47 µM
- GI50 [15]: 63.5 µM
- GI50 [16]: 8.03 µM
- GI50 [17]: 3.39 µM
- GI50 [18]: 3.95 µM
- GI50 [19]: 1520 nM
- GI50 [20]: 4.17 µM
- GI50 [21]: 4.76 µM
- GI50 [22]: 5.34 µM
- GI50 [23]: 5.95 µM
- GI50 [24]: 23 µM
- GI50 [25]: 2340 nM
- GI50 [26]: 4.45 µM
- GI50 [27]: 4.77 µM
- GI50 [28]: 891 nM
- GI50 [29]: 2090 nM
- GI50 [30]: 19.5 µM
- GI50 [31]: 4.08 µM
- GI50 [32]: 2920 nM
- GI50 [33]: 7.14 µM
- GI50 [34]: 6.35 µM
- GI50 [35]: 3290 nM
- GI50 [36]: 12.6 µM
- GI50 [37]: > 100 µM
- GI50 [38]: 3.69 µM
- GI50 [39]: 7.29 µM
- GI50 [40]: 6.13 µM

Structure (SMILES): Cc1nn(-c2ccccc2)c2c1C(C)C1CC3(CC4(C)CC3C1(C)c1c(C)nn(-c3ccccc3)c1N4C)N2C (stereo not drawn)
- GI50 [1]: > 100 µM
- GI50 [2]: > 100 µM
- GI50 [4]: 3.46 µM
- GI50 [5]: 24.1 µM
- GI50 [6]: > 100 µM
- GI50 [7]: 2640 nM
- GI50 [8]: > 100 µM
- GI50 [9]: > 100 µM
- GI50 [10]: 591 nM
- GI50 [12]: > 100 µM
- GI50 [13]: 18.3 µM
- GI50 [41]: 792 nM
- GI50 [14]: > 100 µM
- GI50 [15]: > 100 µM
- GI50 [16]: > 100 µM
- GI50 [18]: > 100 µM
- GI50 [19]: 3140 nM
- GI50 [20]: > 100 µM
- GI50 [42]: > 100 µM
- GI50 [22]: > 100 µM
- GI50 [23]: 8.66 µM
- GI50 [26]: > 100 µM
- GI50 [27]: > 100 µM
- GI50 [28]: 3880 nM
- GI50 [30]: > 100 µM
- GI50 [31]: > 100 µM
- GI50 [32]: 3410 nM
- GI50 [34]: > 100 µM
- GI50 [37]: > 100 µM
- GI50 [39]: > 100 µM

Structure (SMILES): C=C1c2c(C)nn(-c3ccccc3)c2N(C)C23CC1C1(C)c4c(C)nn(-c5ccccc5)c4N(C)C(C)(CC12)C3 (stereo not drawn)
- GI50 [1]: 9.92 µM
- GI50 [2]: 6.22 µM
- GI50 [3]: 5.41 µM
- GI50 [4]: 2.99 µM
- GI50 [5]: 4.64 µM
- GI50 [6]: 5.67 µM
- GI50 [7]: 2130 nM
- GI50 [8]: 7.99 µM
- GI50 [9]: 33.8 µM
- GI50 [10]: 979 nM
- GI50 [11]: 4.44 µM
- GI50 [12]: 4.19 µM
- GI50 [43]: 3.67 µM
- GI50 [13]: 7.15 µM
- GI50 [41]: 549 nM
- GI50 [44]: 4.12 µM
- GI50 [14]: 11.8 µM
- GI50 [15]: 26.7 µM
- GI50 [16]: 6.04 µM
- GI50 [17]: 3.59 µM
- GI50 [18]: 4.28 µM
- GI50 [19]: 2260 nM
- GI50 [20]: 5.55 µM
- GI50 [21]: 2.9 µM
- GI50 [22]: 15.3 µM
- GI50 [23]: 4.49 µM
- GI50 [24]: 8.7 µM
- GI50 [25]: 2870 nM
- GI50 [26]: 11 µM
- GI50 [27]: 4.77 µM
- GI50 [28]: 2120 nM
- GI50 [29]: 3720 nM
- GI50 [30]: 11.9 µM
- GI50 [31]: 7.52 µM
- GI50 [32]: 2040 nM
- GI50 [33]: 4.58 µM
- GI50 [34]: 4.55 µM
- GI50 [35]: 2370 nM
- GI50 [36]: 4.38 µM
- GI50 [37]: > 100 µM
- GI50 [38]: 3.35 µM
- GI50 [39]: 6.78 µM
- GI50 [40]: 4.78 µM
